Source: US20260263468A1 (Fundación Instituto de Investigación Sanitaria Fundación …, priority 2023, published 2026)
Values joined by “and” are separate entries in the source; they are usually repeats but may differ in a detail not shown here. Equal entries are not always repeated.

Legend:
[1] = tested on: C2C12 cells; test: Cell proliferation assay (AlamarBlue); assay type: cell-based; details: 24 h after 2% HS addition, control 100±7.3%
Description: C2C12 cells (American Type Culture Collection, ATCC, Manassas, VA, USA) were cultured in DMEM supplemented with 10% FBS and 1% penicillin-streptomycin. To induce myogenic differentiation, 70% confluence C2C12 cells were culture in DMEM containing 2% HS (horse serum). Cells were maintained in a humidified chamber at 37° C., in 95% air and 5% CO2. Media was replaced with fresh every 48h.
C2C12 cells were plated in 96-well plates (Corning, Cultek, Spain) (12.500 cells/well). Cell proliferation was measured using AlamarBlue assay according to the manufacturer's instructions, at 24 and 48 h of myogenic differentiation.

[2] = tested on: C2C12; test: cAMP concentration (ELISA); assay type: cell-based; details: myoblast, 1 μM, 5 minutes; control 0.58±0.13
Description: CAMP concentration was measured using the colorimetric cAMP ELISA kit following manufacture protocol for acetylated cell lysates (Cell Biolabs, San Diego, USA). Absorbance was measured at 450 nm using a microplate reader Tecan Spark 20M.
The CAMP signaling cascade has been linked to a delay in the onset of age-related muscle loss.

[3] = mice, tenofovir 75 mg/Kg/day; cited from earlier work
[4] = tested on: C2C12; test: Western blot of phosphorylated AMPK; assay type: cell-based; details: 1 μM, day 4, vs basal
Description: (§1) Cells were lysed with RIPA buffer and protein concentration was determined by BCA. […] Variations in intensity were expressed as % of basal (day 0) and expressed as mean±SEM. All results were calculated as a percentage of non-differentiated controls to minimize the intrinsic variation among different experiments.
We next studied if these changes in AMP/ATP ratio had any effect in AMPK activation.

[5] = tested on: C2C12; test: AMPK phosphorylation assay kit (short time points); assay type: cell-based; details: myoblast, 1 μM, 10 min after switching to 2% HS; control 1.97±0.17
Description: Assay was performed with the AMPK phosphorilation assay kit (Abnova Corporation, Jhouzih St, Taiwan) as manufactor instructions and pAMPK was measured at λex/em 530/585 nm and 360/450 nm for total protein with Tecan Infinite.

[6] = tested on: C2C12; test: Western blot of myogenesis markers during differentiation; assay type: cell-based
Description: as §1

[7] = tested on: C2C12; test: Western blot of adenosine receptors, P2X7 and Panx-1 during differentiation; assay type: cell-based
Description: as §1
The expression of adenosine receptors, P2X7 receptor and Panx-1 channel was analyzed during myoblast differentiation.

[8] = tested on: C2C12; test: Nucleotide concentration by HPLC during C2C12 differentiation; assay type: cell-based
Description: Supernatant and cell lysate are collected every day. Cells were lysated with a homemade buffer (1 mM phenylmethylsulfonyl fluoride, 1 mM protease inhibitor cocktail, 1 mM sodium orthovanadate, 1 mM sodium fluoride and 1 mM β-glicerophospate) and supernatant was used directly. A heat shock step was done at 98° C. for 2 min, and to avoid adenosine degradation 1 μM EHNA was added at the time of heating. All samples were centrifuged at 13000 g for 10 min at 4° C. and supernatants were collected and stored at −80° C. until use. Inosine, adenosine, AMP, ADP and ATP concentrations were determined with high performance liquid chromatography (HPLC) using a liquid chromatograph with a reversed phase column (Agilent 1100 Series Liquid Chromatography) and an UV detector set at 254 nm. Buffer composed of 0.1 mol/L KH2PO4 (pH 7.5) and 18% acetonitrile was run at 1.5 ml/min for 20 min. Compounds were identified and quantified by their retention times and peak areas of known standards, calibrated by spectrophotometry. […] The results have been corrected and expressed as mean±SEM. All results were calculated as a percentage of controls without differentiation state.

[9] = tested on: C2C12; test: Western blot of PKA isoforms, pCREB, EPAC1/2; assay type: cell-based
Description: as §1
To study the CAMP signaling pathway, we analyzed the expression of PKA on its three catalytic isoforms PKAα, PKAβ and PKAγ as well as EPAC1/2. […] Tenofovir reduced its phosphorylation (154±9% tenofovir vs 247±30% control at day 4, p<0.05, FIG. 3B).

[10] = tested on: C2C12 myoblast cell line; test: Western blot of C2C12 under pro-inflammatory conditions with/without dipyridamole; details: for PAX7 expression (vs 100% basal): IL-6 2.5 μg/ml, INFγ 1 μg/ml or LPS 10 μg/ml ± dipyridamole 1 μM, control 64.7±5%; for PAX7 expression (vs 100% basal) / AMPK activation / CREB activation / MHC expression (vs 100% basal) / PKAα expression: day 4; for A2BR expression / AMPK activation / CREB activation / MHC expression (vs 100% basal): cytokine/LPS ± dipyridamole 1 μM; for AMPK activation: control 222.7±23.9%; for CREB activation: control 353.7±45.15%; for MHC expression (vs 100% basal): control 757.6±85.7%; for PKAα expression: control 213.9±21.6%
Description: Western blot was performed as described above.
Protein concentration was determined by BCA. 4 μg for cells and 40-50 μg for tissue samples of protein was subjected to 6-15% SDS-PAGE and transferred to a nitrocellulose membrane. Membranes were blocked with 3% BSA in Tris-buffered saline containing 0.1% Tween-20 (TBS-T). After that, the membranes were incubated overnight at 4° C. with the primary antibodies for A2A, A2B, MHC (Thermo Fisher Scientific, Waltham, USA), AMPK, pAMPK (Thr172), p21, p16 (Cell signaling, Danvers, EEUU) (1:1000 each) and Pax-7 (Developmental Studies Hybridoma Bank, Houston, EEUU) (1:500 each).

[11] = tested on: C2C12 myobundles; test: C2C12 3D myobundle with IL-6 ± dipyridamole; assay type: cell-based; details: IL-6 2.5 μg/ml ± dipyridamole 1 μM, 14 days; Sham 890±39
Text: C2C12 myobundles were fabricated following the protocol described by Bursac group (see references in ref. 44). Briefly, molds of polydimethylsiloxane (PDMS) designed for 12-well plates were created from Teflon masters with semicylindrical wells. These molds were sterilized, coated with 0.2% (w/v) Pluronic F-127 (Invitrogen) to prevent tissue adhesion, and paired with laser-cut Cerex frames (9×9 mm^2, 1-mm-wide rim) for myobundle attachment. The frames served as an anchor and guide during hydrogel compaction, ensuring uniaxial cell alignment. C2C12 cells were encapsulated in a hydrogel solution, including bovine fibrinogen (Sigma-Aldrich), matrigel (Corning), bovine thrombin (Sigma-Aldrich), and growth medium as concentration of bursac group indicates Referencias. The cell/hydrogel mixture was polymerized in the PDMS molds, and myobundles were cultured in a humidified chamber at 37° C., in 95% air and 5% CO2. After 4 days, the frames with myobundles were suspended in DM with treatments. DM and treatments are replaced every two days. GM and DM media contained 6-aminocaproic acid to reduce fibrinolysis. […] After the 14 days of treatment a bright-field photograph was taken to analyze the thickness of the fiber at its midpoint, and subsequently, they were embedded in OCT medium. […]

C[C@H](Cn1cnc2c(N)ncnc21)OCP(=O)(O)O [tenofovir]
Proliferation compared to control ([1]; 1 μM): 63.3±5% | Proliferation compared to control ([1]; 10 μM): 62.8±6.4% | cAMP levels [2]: 0.24±0.07 | Body weight lost [3]: ~10% | pAMPK (Western blot) [4]: 1.15±0.05 | AMPK activation [5]: 1.02±0.19 | MHC protein expression (% of basal) ([6]; 1 μM each, day 1): 1429±379% and 1153±131% | PAX7 protein expression (% of basal) ([6]; 1 μM, day 1, control 315±58%): 101±23% | MyoD protein expression (% of basal) ([6]; 1 μM, day 2, control 182±8%): 389±33% | Myf5 protein expression (% of basal) ([6]; 1 μM, first 2 days of differentiation): 142±23% | Adenosine A2B receptor protein expression (% of basal) ([7]; 1 μM each, day 4): 553±47% | A3 receptor protein expression ([7]; 1 μM, compared to control): did not change | P2X7 protein expression (% of basal) ([7]; 1 μM, day 4): 89±19% | Intracellular ATP ([8]; 1 μM each, day 1, control 4.93±0.02): 11.56 ± 0.26 nM and 11.74 ± 0.08 nM | Intracellular AMP/ATP ratio ([8]; 1 μM each, day 3, control 1.88±0.12): 0.62±0.03 | Extracellular ATP ([8]; 1 μM each, day 4, control 14.7±0.5): 10.67 ± 0.28 nM | Intracellular adenosine ([8]; 1 μM, day 4, control 10.87±0.73): did not change | Intracellular inosine ([8]; 1 μM, day 4, control 11.07±0.54): did not modulate | Intracellular AMP ([8]; 1 μM, day 4, control 12.10±0.73): 6.33 ± 0.35 nM | Extracellular adenosine ([8]; 1 μM, day 4 of differentiation, control 11.6±0.81): 6.65 ± 0.54 nM | PKAα protein expression (% of basal) ([9]; 1 μM each, day 4, control 292±65%): 215±90% and 215.8±94.2% | pCREB (% of basal) ([9]; 1 μM, day 4, control 247±30%): 154±9% | EPAC2 protein expression ([9]; 1 μM, within differentiation): maintained the expression similar to basal levels

B1: INFγ: pro-inflammatory cytokine used at 1 μg/ml on C2C12 (protein, UniProt P01580 23-155, looked up)
Interferon gamma: HGTVIESLESLNNYFNSSGIDVEEKSLFLDIWRNWQKDGDMKILQSQIISFYLRLFEVLKDNQAISNNISVIESHLITTFFSNSKAKKDAFMSIAKFEVNNPQVQRQAFNELIRVVHQLLPESSLRKRKRSRC
PAX7 expression (vs 100% basal) [10]: 114±11% | A2BR expression ([10]; 24 h, control 112.9±4.7%): 69.3±1.9% | A2BR expression ([10]; 4 days, control 172.7±12.6%): 66.03±20.3% | AMPK activation [10]: 80.4±6.1% | CREB activation [10]: 176.7±27.8% | MHC expression (vs 100% basal) [10]: 123.1±20.3% | PKAα expression [10]: 101.7±3.7%

B2: IL-6: pro-inflammatory cytokine used at 2.5 μg/ml on C2C12 (protein, UniProt P08505 25-211, looked up)
Interleukin-6: FPTSQVRRGDFTEDTTPNRPVYTTSQVGGLITHVLWEIVEMRKELCNGNSDCMNNDDALAENNLKLPEIQRNDGCYQTGYNQEICLLKISSGLLEYHSYLEYMKNNLKDNKKDKARVLQRDTETLIHIFNQEVKDLHKIVLPTPISNALLTDKLESQKEWLRTKTIQFILKSLEEFLKVTLRSTRQT
Myobundle thickness [11]: 616.3±22.9 μm | PAX7 expression (vs 100% basal) [10]: 121±8% | A2BR expression ([10]; 24 h, control 112.9±4.7%): 75.8±2.2% | A2BR expression ([10]; 4 days, control 172.7±12.6%): 67.6±3% | AMPK activation [10]: 80.9±5.8% | CREB activation [10]: 163.4±19.26% | MHC expression (vs 100% basal) [10]: 127.7±15.8% | PKAα expression [10]: 107±5.8%
